# Patent US20240197700A1, “Methods and Compositions for Treating Lysosomal Storage Disorders” (Sanford Health, priority 2021, published 2024)
# “Also recorded” adds a separate entry of the source.
# Experiments:
# Format in all cases: cell-based, mouse
# NCL PNCs = assay: Autofluorescent storage material (ASM) in Batten disease primary neuronal cultures
# Protocol: Specific experimental details are included in figure legends. […] On DIV7, cells were treated with the following dyes: Hoechst 33342 (1:1000 dilution), LysoTrackerT™ Red DND-99 (1:10,000 dilution), fixed, and imaged. Mice were given vehicle or AF38469 (78.125 μg/ml, 3.125 μg/ml, 0.3125 μg/ml or 0.03125 μg/ml equating approximately to 250 μg/mouse/day, 10 μg/mouse/day, 1 μg/mouse/day, and […], respectively, given a mouse's daily water intake of approximately 3.2 ml per day) in drinking water beginning at wean. Body weight was measured bi-weekly, and a force actimeter test was performed on Cln2^R207X mice at 10 weeks of age. Body weight was measured every month for Cln3^Δex7/8 mice. At 11 and 16 weeks of age, respectively, Cln2^R207X and Cln3^Δex7/8 mice along with age matched wild type control mice were CO2 euthanized and intracardially perfused with PBS. Brains were collected and placed on a 1 mm sagittal brain block. Brains were sliced at the midline and 3 mm right of the midline. One hemisphere was fixed in 4% PFA and sectioned at 50 microns on a vibratome. Immunohistochemistry was performed on free-floating sections. For mitochondrial ATP synthase subunit C (SubC), glial fibrillary acidic protein (GFAP), and cluster of differentiation 68 (CD68) immunolabeling, primary antibodies included anti-SubC (Abcam, ab181243; 1:1000), anti-GFAP (Dako, Z0334; 1:5000), anti-CD68 (AbD Serotec, MCA1957; 1:2000), and secondary antibodies included anti-rabbit biotinylated (Vector Labs, BA-1000 1:1000) and anti-rat (Vector Labs, BA-9400 1:1000). Coverslips were mounted on slides using antifade-mounting media and were stored in the dark before imaging. Sections were imaged and analyzed using an Aperio Digital Pathology Slide Scanner (AT2) and associated software. Images were extracted from S1BF of the somatosensory cortex and the VPM/VPL of the thalamus, with multiple images taken of multiple tissues from each animal.
# • An increase in percent area or total area of positive autofluorescent storage material (ASM) signal in untreated NCL MEFs or PNCs relative to age-matched, wild type MEFs or PNCs is considered an increase in the accumulation of autofluorescent storage material, reflecting disease-related lysosomal dysfunction. • A decrease in percent area or total area of positive autofluorescent storage material signal in AF38469 treated MEFs and PNCs relative to age-matched, vehicle treated MEFs and PNCs is considered a reduction in the accumulation of autofluorescent storage material and thus a decrease in disease-related lysosomal dysfunction. • LysoTracker™ is an acidophilic dye that labels lysosomes and accumulation increases with an increase in lysosome size or number. Cell and mouse models of lysosomal storage disorders often have increased accumulation of lysosomes and therefore have a stronger LysoTracker™ signal. […]
# [1] = test system: palmitoyl-protein thioesterase 1 (PPT1); assay: PPT1 enzyme activity in MEF lysates; details: wild type, DIV7
# [2] = test system: tripeptidyl peptidase 1 (TPP1); assay: TPP1 enzyme activity in MEF lysates
# Protocol: Treatment with AF38469 increases PPT1 and TPP1 enzyme activity in Batten disease mouse embryonic fibroblasts. Since AF38469 increases the expression of lysosomal genes including the PPT1 and TPP1 enzymes, we asked whether AF38469 increases the overall activity levels of these enzymes in cellulo. Wild type (WT) and mutant cells were treated with vehicle or AF38469 (40 nM). Cells were plated on day 0 and dosed with drug-containing media on DIV3 and DIV5. Cells were lysed, and protein quantification and enzyme activity assay were performed on DIV7. Data was analyzed with GraphPad Prism™. Two-way ANOVA. Mean±S.E.M. Tukey's multiple comparisons test. *p<0.05, **p<0.01, ***p<0.001, ****p<0.0001. Palmitoyl-protein thioesterase 1 (PPT1) is the lysosomal enzyme mutated in CLN1 disease and removes thioester-linked fatty acyl groups from modified cysteines of substrate proteins. Tripeptidyl peptidase 1 (TPP1) is the lysosomal enzyme mutated in CLN2 disease and has broad substrate specificity against various proteins degraded in the lysosome after cleavage.
# Since LM11A-31 stimulates the nuclear translocation of transcription factors responsible for lysosome biogenesis, we asked whether LM11A-31 increases the overall activity levels of lysosomalenzymes in cellulo. […] Wild type (WT) and mutant cells were treated with vehicle or LM11A-31 (100 nM). Cells were plated on day 0 and dosed with drug-containing media on DIV3 and DIV5. Cells were lysed, and protein quantification and enzyme activity assay were performed on DIV7. Data was analyzed with GraphPad Prism™. Two-way ANOVA. Mean±S.E.M. Tukey's multiple comparisons test. *p<0.05, **p<0.01, ***p<0.001, ****p<0.0001. […] Palmitoyl-protein thioesterase 1 (PPT1) is the lysosomal enzyme mutated in CLN1 disease and removes thioester-linked fatty acyl groups from modified cysteines of substrate proteins. Tripeptidyl peptidase 1 (TPP1) is the lysosomal enzyme mutated in CLN2 disease and has broad substrate specificity against various proteins degraded in the lysosome after cleavage. Mutations in the CTSD gene, encoding cathepsin d, a lysosomal protease that is involved in the recycling and degradation, is a known cause of Cln10 disease.
# Since semaglutide improves lysosomal health and function across diverse cell models of lysosomal storage disorder, we asked whether the function of the lysosomes was improved. […] Additionally, a combination of semaglutide and AF38469, a sortilin inhibitor, increased overall levels of activity for both enzymes in cell lysates. Wild type (WT) and mutant cells were treated with vehicle or semaglutide (100 nM) or AF38469 (40 nM) and semaglutide (100 nM). Cells were plated on in vitro day 0 and dosed with drug-containing media on DIV3 and DIV5. Cells were lysed, and protein quantification and enzyme activity assay were performed on DIV7. Data was analyzed with GraphPad Prism™. Two-way ANOVA. Mean±S.E.M. Tukey's multiple comparisons test. *p<0.05, **p<0.01, ***p<0.001, ****p<0.0001. […] (FIG. 20A). […] Levels of TPP1 enzyme activity in Cln2^R207X were not altered by treatment of semaglutide, as was expected given the lack of a functional TPP1 protein in this model (FIG. 20B). […] Levels of TPP1 enzyme activity in Cln2^R207X were not altered by treatment of AF38469 and semaglutide, as was expected given the lack of a functional TPP1 protein in this model. n=5 wells per treatment (FIG. 20D).
molecule,measurement,setting,value
"Cc1cccc(NC(=O)c2ccc(C(F)(F)F)cc2C(=O)O)n1 [AF38469, 2-((6-methylpyridin-2-yl)carbamoyl)-5-(trifluoromethyl)benzoic acid]",accumulation of autofluorescent storage material (ASM),"NCL PNCs; 40 nM, 400 nM, 4 μM, Cln1^R151X, Cln2^R207X, Cln3^Δex7/8, Cln6^nclf PNCs, DIV7",significantly reduced
same,ASM levels,"NCL PNCs; Cln8^mnd PNCs, DIV7",significantly increased
same,PPT1 enzyme activity,"[1]; AF38469 40 nM, Cln2^R207X, Cln3^Δex7/8, Cln6^nclf, Cln11^−/− MEFs",increased the overall levels of activity; also recorded: significantly increased
same,TPP1 enzyme activity,"[2]; AF38469 40 nM, Cln2^R207X MEFs",not altered
same,TPP1 enzyme activity,"[2]; AF38469 40 nM, wild type, Cln3^Δex7/8, Cln6^nclf, Cln11^−/− MEFs, DIV7",increased the overall levels of activity; also recorded: significantly increased
semaglutide,autofluorescent storage material (ASM) signal,"NCL PNCs; semaglutide 10 nM, 100 nM, 1 μM, Cln2^R207X and Cln6^nclf PNCs",significantly reduced
same,ASM levels,"NCL PNCs; semaglutide 10 nM, 100 nM, Cln3^Δex7/8 PNCs",significantly reduced
same,ASM levels,"NCL PNCs; semaglutide 10 nM, 1 μM, Cln1^R151X PNCs",significantly reduced
same,ASM levels,"NCL PNCs; semaglutide 10 nM, 1 μM, Cln8^mnd PNCs",significantly reduced
same,ASM levels,"NCL PNCs; semaglutide 100 nM, Cln1^R151X PNCs",had no impact
same,ASM levels,"NCL PNCs; semaglutide 100 nM, Cln8^mnd PNCs",significantly elevated
same,ASM levels,"NCL PNCs; semaglutide 1 μM, Cln3^Δex7/8 PNCs",significantly elevated
same,PPT1 enzyme activity,"[1]; semaglutide 100 nM, Cln2^R207X and Cln3^Δex7/8 MEFs",significantly increased
same,TPP1 enzyme activity,"[2]; semaglutide 100 nM, Cln2^R207X MEFs",not altered
same,TPP1 enzyme activity,"[2]; semaglutide 100 nM, wild type, Cln3^Δex7/8 MEFs, DIV7",significantly increased
"CC[C@H](C)[C@H](N)C(=O)NCCN1CCOCC1 [LM11A-31, N-[2-(morpholin-4-yl)ethyl]-L-isoleucinamide]",accumulation of autofluorescent storage material (ASM),"NCL PNCs; LM11A-31 100 nM, Cln6^nclf and Cln8^mnd PNCs",significantly reduced
same,accumulation of autofluorescent storage material (ASM),"NCL PNCs; LM11A-31 1 μM, Cln1^R151X PNCs",significantly reduced
same,accumulation of autofluorescent storage material (ASM),"NCL PNCs; LM11A-31 1 μM, Cln3^Δex7/8 PNCs",significantly reduced
same,accumulation of autofluorescent storage material (ASM),"NCL PNCs; LM11A-31 all treatment groups, Cln2^R207X PNCs",significantly reduced
same,ASM,"NCL PNCs; LM11A-31 varying doses, neurons of all tested NCLs",significantly reduced
same,PPT1 enzyme activity,"[1]; LM11A-31 100 nM, Cln2^R207X and Cln3^Δex7/8 MEFs",significantly increased
same,TPP1 enzyme activity,"[2]; LM11A-31 100 nM, wild type and Cln3^Δex7/8 MEFs, DIV7",significantly increased
